Experimental data: BigSolDB 2.1

O=C(O)c1cccc2ccccc12
solubility (mole fraction)
Conditions | in acetic acid | in ethanol | in ethyl acetate | in isobutanol | in isopropanol | in methanol | in methyl acetate | in n-butanol | in n-propanol
293.15 K | 0.0172 | 0.0282 | 0.0294 | 0.0187 | 0.0251 | 0.0206 | 0.0257 | 0.03 | 0.027
298.15 K | 0.0194 | 0.0311 | 0.0329 | 0.0213 | 0.0284 | 0.0229 | 0.0301 | 0.0344 | 0.0302
303.15 K | 0.0224 | 0.0356 | 0.0374 | 0.0257 | 0.034 | 0.0269 | 0.0335 | 0.0389 | 0.0351
308.15 K | 0.0257 | 0.0402 | 0.0418 | 0.0311 | 0.0401 | 0.0304 | 0.0387 | 0.0444 | 0.0407
313.15 K | 0.0296 | 0.0457 | 0.0472 | 0.0364 | 0.0472 | 0.0351 | 0.043 | 0.0514 | 0.0461
318.15 K | 0.0334 | 0.0513 | 0.0534 | 0.0427 | 0.0544 | 0.0392 | 0.0498 | 0.0605 | 0.0536
323.15 K | 0.0383 | 0.0574 | 0.06 | 0.0502 | 0.0636 | 0.0443 | 0.055 | 0.0684 | 0.0604
328.15 K | 0.0439 | 0.0654 | 0.0673 | 0.0588 | 0.0731 | 0.0496 | 0.0622 | 0.079 | 0.0702
333.15 K | 0.0503 | 0.0738 | 0.0754 | 0.0685 | 0.0852 | 0.0557 | – | 0.0901 | 0.0795
